Key:
[1] = test system: BalbC mice; assay: Arachidonic acid mouse ear oedema model; format: in vivo; details: 300 μg/ear in acetone, topical; arachidonic acid alone 86%
Method: The arrachidonic mouse ear oedema model is an acute inflammation model based on activation of ecosanoid pathways. The mouse ear oedema model was performed using BalbC mice (25-35 g), of either sex. The ear was treated by the topical application (10 μl) of solvent (acetone 100%) or test drug (300 μg/ear in acetone) or Indomethacin (300 μg/ear in acetone). After one hour, oedema was induced by the topical application of arachidonic acid (10 μl at 0.4 g/ml in acetone). The width of each ear was measured, both before and 60 min after the induction of oedema, using a micrometer screw gauge. Ear oedema was calculated by comparing the ear width before and after induction of oedema and expressed as percentage normal. Animals were killed using CO2, without recovering from sedation.

[2] = test system: CD-1 mice; assay: Sheep red blood cell (SRBC) delayed-type hypersensitivity mouse paw swelling; format: in vivo; details: 30 mg/kg; vehicle 89%
Method: The sheep red blood cells were first cleaned and counted as follows. 5 mls of the SRBC were spun down in a centrifuge at 3000 rpm for 10 minutes. The supernatant was removed and phosphate buffered saline (PBS), pH 7.4 added to the pellet. The pellet was mixed with the PBS buffer (5 mls) and spun down in a centrifuge at 3000 rpm for 10 minutes. The pellet was washed twice more with PBS buffer as described above. The pellet was then reconstituted in 5 mls of PBS buffer following the final wash. 10 μl of a 1 in 200 dilution of the sample of reconstituted sheep red blood cells (in trypan blue stain) was used to fill the counting chamber of a haemacytometer and the number of sheep red blood cells counted.
Male CD-1 mice (30-40 gms) were sensitised on day zero. The negative control group was sensitised with 100 μl PBS intraperitoneally (i.p.), while the positive control group and drug treated groups were sensitised with 1×10^7 SRBC (100 μl i.p.).
Animals were challenged 5 days later with SRBC. The SRBC were cleaned and counted as described above. Animals anaesthetised with halothane were challenged s.c. by injecting SRBC (3×10^8 cells in 20 μl) into the right hind paws and PBS (20 μl) into the left hind paws. […]
The difference in paw swelling between the saline-injected and SRBC-challenged contralateral paw of each mouse was calculated by measuring paw volume (mls) using a plethysmometer. […]

[3] = test system: IL-2 secretion from Jurkat T cells; assay: IL-2 secretion from activated Jurkat T cells (ELISA); format: cell-based, human; details: for IL-2 [ ]pg/ml (1) / IL-2 % Control (1): experiment (1); for IL-2 % Control (1) / IL-2 % Control (2) / IL-2 % Control (3): relative to DMSO 0.1%; for IL-2 [ ]pg/ml (2) / IL-2 % Control (2): experiment (2); for IL-2 [ ]pg/ml (3) / IL-2 % Control (3): experiment (3)
Method: The T cell line Jurkat 6.1 (ATCC) was used. Cells were pre-treated for 30 min with 1 μM or 10 μM of the respective compound and then stimulated with plate-bound anti-CD3 (BD Pharmingen) and anti-CD28 (AnCell). DMSO was used as vehicle control. The immunosuppressive agent Cyclosporine A was used as a control for inhibition of IL-2 production. After 24 hs the supernatant was collected and IL-2 secretion was measured by ELISA.
Jurkat T cells were cultured in RMPI-1640 medium containing 10 % Foetal Bovine Serum, Penicillin/Streptomycin and L-Glutamine in T-75cm2 flasks at 37° C. and 5 % CO2. Cells were seeded into new culture flasks at a density of 1-3×10^5 cells per ml and maintained at a density of 0.5−1×10^6 cells per ml.
(§1) (A) Anti-TCR/CD28-mediated activation of Jurkat cells: Experiments involving anti-TCR/CD28-mediated activation of Jurkat T lymphocytes were carried out on 24-well cell culture plates. The plates were coated with a 1/100 dilution of rabbit anti-mouse IgG in sterile PBS (1×) and incubated overnight at 4OC. Unbound antibody was aspirated and the wells were gently rinsed with warm sterile PBS. The PBS was aspirated and the wells were coated with a 1/100 dilution of anti-TCR antibody (OKT-3) and a 1/200 dilution of anti-CD28 antibody (both antibodies pre-mixed prior to addition to the plates) in sterile PBS. The plates were then incubated for 1-2 hours at 37° C. Unbound antibody was aspirated and the wells were gently rinsed with warm PBS. The PBS was left on the plate until the Jurkat cells were ready to be added to the plate. The Jurkat cells were harvested from the T-75cm2 cell culture flasks and resuspended at a density of 0.5×10^6 cells per ml. The compounds were dissolved at a specified stock concentration (see results section) and diluted to the required concentration by adding the drug to the cell suspension. The cells were then pre-incubated with the compounds or with an equivalent volume of drug vehicle control (DMSO) for 30 minutes prior to adding the cell suspension to the antibody-coated plates. Cyclosporine A (1 μM) was used as a positive control to inhibit IL-2 production from activated T cells and was preincubated with the 6 cells as described above in parallel. The cells were then incubated on the plates with the acti-TCR/CD28 antibodies for 24 hours at 37° C. and 5% CO2 in a humidified atmosphere. After 24 hours, the cell suspension was removed from the plates and the cells were pelleted by centrifugation. The cell culture supernatant was saved and analysed for secreted IL-2 by ELISA. The cell pellet was saved and cell viability was measured using Acridine Orange/Ethidium Bromide cell viability staining solution.
(B) PHA/PMA-mediated activation of Jurkat cells Jurkat cells were resuspended at a concentration of 0.5×10^6 cells per ml and the Pharmatrin compounds at the desired concentration or an equivalent volume of drug vehicle control (DMSO) were added to the cells and incubated for 30 minutes. Cyclosporine A (1 ∝M) was used as a positive control to inhibit IL-2 production from activated T cells and was preincubated with the cells as described above in parallel. PHA and PMA were added to the cell suspension (10 ∝g/ml and 10 ng/ml respectively) and the cells were plated onto uncoated 24-well plates. The cells were incubated on the plates for 24 hours at 37° C. and 5 % CO2 in a humidified atmosphere. After 24 hours, the cell suspension was removed from the plates and the cells were pelleted by centrifugation. The cell culture supernatant was saved and analysed for secreted IL-2 by ELISA.
The cell culture supernatants were analysed for IL-2 by ELISA (96-well plate format) using the Human IL-2 ELISA kit from R&D Systems Europe. This assay was carried out using the standard protocol outlined by the company. Samples and standards (recombinant human IL-2 provided by R&D Systems) were analysed in triplicate. […]

[4] = test system: Jurkat cells; assay: Jurkat cell viability (Acridine Orange/Ethidium Bromide); format: cell-based
Method: as §1
The cell pellet was resuspended in 20 μl of Acridine Orange/Ethidium Bromide staining solution. A portion of this cell suspension was placed on a haemocytometer and analysed under a fluorescence microscope. […] The ratio of viable cells: non-viable cells were calculated for each activation time point/drug treatment.

[5] = test system: β-hexosaminidase release from RBL-2H3 cells; details: RBL-2H3 cells stimulated by calcium ionophore A23187; Bioorg. Med. Chem. Lett. 19(20), 2009; cited from earlier work

O[C@H]1c2ccccc2C[C@]1(Cc1ccccc1)C1=Cc2ccccc2C1 (mixture of isomers) [Compound 6, (S,S and RR)2-Benzyl-2,3-dihydro-1H,1′H-2,2′-biinden-1-ol]
ear swelling (increase in ear thickness) [1]: 50%
SRBC paw swelling [2]: 52%
IL2 release from Jurkat cells [3]: inhibited IL2 release
IL-2 [ ]pg/ml (1) ([3]; 0.3 uM): 63.72 pg/mL
IL-2 % Control (1) ([3]; 0.3 uM): 87.26%
IL-2 [ ]pg/ml (2) ([3]; 0.3 uM): 74.50 pg/mL
IL-2 % Control (2) ([3]; 0.3 uM): 114.09%
IL-2 [ ]pg/ml (3) ([3]; 0.3 uM): 101.75 pg/mL
IL-2 % Control (3) ([3]; 0.3 uM): 77.34%
IL-2 [ ]pg/ml (1) ([3]; 1 uM): 58.72 pg/mL
IL-2 % Control (1) ([3]; 1 uM): 80.41%
IL-2 [ ]pg/ml (2) ([3]; 1 uM): 51.60 pg/mL
IL-2 % Control (2) ([3]; 1 uM): 79.02%
IL-2 [ ]pg/ml (3) ([3]; 1 uM): 112.44 pg/mL
IL-2 % Control (3) ([3]; 1 uM): 85.47%
IL-2 [ ]pg/ml (1) ([3]; 3 uM): 47.83 pg/mL
IL-2 % Control (1) ([3]; 3 uM): 65.50%
IL-2 [ ]pg/ml (2) ([3]; 3 uM): 29.15 pg/mL
IL-2 % Control (2) ([3]; 3 uM): 44.64%
IL-2 [ ]pg/ml (3) ([3]; 3 uM): 104.44 pg/mL
IL-2 % Control (3) ([3]; 3 uM): 79.39%
IL-2 [ ]pg/ml (1) ([3]; 10 uM): 27.72 pg/mL
IL-2 % Control (1) ([3]; 10 uM): 37.96%
IL-2 [ ]pg/ml (2) ([3]; 10 uM): 36.15 pg/mL
IL-2 % Control (2) ([3]; 10 uM): 55.36%
IL-2 [ ]pg/ml (3) ([3]; 10 uM): 75.19 pg/mL
IL-2 % Control (3) ([3]; 10 uM): 57.15%
IL-2 [ ]pg/ml (1) ([3]; 30 uM): 4.72 pg/mL
IL-2 % Control (1) ([3]; 30 uM): 6.47%
IL-2 [ ]pg/ml (2) ([3]; 30 uM): 47.60 pg/mL
IL-2 % Control (2) ([3]; 30 uM): 72.89%
IL-2 [ ]pg/ml (3) ([3]; 30 uM): 16.47 pg/mL
IL-2 % Control (3) ([3]; 30 uM): 12.52%
IL-2 [ ]pg/ml (1) ([3]; 100 uM): -10.11 pg/mL
IL-2 % Control (1) ([3]; 100 uM): −13.85%
IL-2 [ ]pg/ml (2) ([3]; 100 uM): -19.75 pg/mL
IL-2 % Control (2) ([3]; 100 uM): −30.25%
IL-2 [ ]pg/ml (3) ([3]; 100 uM): 1.97 pg/mL
IL-2 % Control (3) ([3]; 100 uM): 1.50%
cell viability [4]: without affecting cell viability

O[C@@H]1c2ccccc2C[C@]1(Cc1ccccc1)C1=Cc2ccccc2C1 (mixture of isomers) [Compound 5, (R,S and SR)2-Benzyl-2,3-dihydro-1H,1′H-2,2′-biinden-1-ol]
ear swelling (increase in ear thickness) [1]: 62%
SRBC paw swelling [2]: 60%
IL2 release from Jurkat cells [3]: inhibited IL2 release
IL-2 [ ]pg/ml (1) ([3]; 0.3 uM): 32.00 pg/mL
IL-2 % Control (1) ([3]; 0.3 uM): 156.86%
IL-2 [ ]pg/ml (2) ([3]; 0.3 uM): 87.25 pg/mL
IL-2 % Control (2) ([3]; 0.3 uM): 133.61%
IL-2 [ ]pg/ml (3) ([3]; 0.3 uM): 164.41 pg/mL
IL-2 % Control (3) ([3]; 0.3 uM): 124.97%
IL-2 [ ]pg/ml (1) ([3]; 1 uM): 21.85 pg/mL
IL-2 % Control (1) ([3]; 1 uM): 107.11%
IL-2 [ ]pg/ml (2) ([3]; 1 uM): 64.65 pg/mL
IL-2 % Control (2) ([3]; 1 uM): 99.00%
IL-2 [ ]pg/ml (3) ([3]; 1 uM): 127.84 pg/mL
IL-2 % Control (3) ([3]; 1 uM): 97.18%
IL-2 [ ]pg/ml (1) ([3]; 3 uM): 10.90 pg/mL
IL-2 % Control (1) ([3]; 3 uM): 53.43%
IL-2 [ ]pg/ml (2) ([3]; 3 uM): 83.25 pg/mL
IL-2 % Control (2) ([3]; 3 uM): 60.20%
IL-2 [ ]pg/ml (3) ([3]; 3 uM): 97.38 pg/mL
IL-2 % Control (3) ([3]; 3 uM): 74.02%
IL-2 [ ]pg/ml (1) ([3]; 10 uM): 8.75 pg/mL
IL-2 % Control (1) ([3]; 10 uM): 42.89%
IL-2 [ ]pg/ml (2) ([3]; 10 uM): 63.80 pg/mL
IL-2 % Control (2) ([3]; 10 uM): 97.70%
IL-2 [ ]pg/ml (3) ([3]; 10 uM): 70.72 pg/mL
IL-2 % Control (3) ([3]; 10 uM): 53.76%
IL-2 [ ]pg/ml (1) ([3]; 30 uM): 16.25 pg/mL
IL-2 % Control (1) ([3]; 30 uM): 79.66%
IL-2 [ ]pg/ml (2) ([3]; 30 uM): 5.75 pg/mL
IL-2 % Control (2) ([3]; 30 uM): 8.81%
IL-2 [ ]pg/ml (3) ([3]; 30 uM): 6.69 pg/mL
IL-2 % Control (3) ([3]; 30 uM): 5.08%
IL-2 [ ]pg/ml (1) ([3]; 100 uM): -10.40 pg/mL
IL-2 % Control (1) ([3]; 100 uM): −50.98%
IL-2 [ ]pg/ml (2) ([3]; 100 uM): -13.05 pg/mL
IL-2 % Control (2) ([3]; 100 uM): −19.98%
IL-2 [ ]pg/ml (3) ([3]; 100 uM): 0.28 pg/mL
IL-2 % Control (3) ([3]; 100 uM): 0.21%
cell viability [4]: without affecting cell viability
inhibition of β-hexosaminidase release [5]: dose-dependant inhibition

From US20150141523A1, “COMPOUNDS FOR USE IN THE TREATMENT OF AUTOIMMUNE INFLAMMATORY DISEASE” (Venantius Limited, priority 2012, published 2015)
